US6921848B2, “Genes involved in brassinosteroid hormone action in plants” (The Salk Institute for Biological Studies, priority 2001, dated 2005)

What was measured:
Arabidopsis plants [1] = conditions: normal Arabidopsis plants; cited from earlier work
Arabidopsis plants [2] = assay: Brassinazole application to Arabidopsis plants (mutant screen); type: in vivo, Arabidopsis thaliana; conditions: EMS mutagenized Arabidopsis plants, most plants
Method: EMS mutagenized Arabidopsis seeds were grown into plants that were then subjected to a suppressor screen for mutants insensitive to the brassinosteroid pathway inhibitor brassinazole. […] The mutant protein is herein referred to as bzr1-D (SEQ ID NO. 7).
(§1) The mutagenized plants were put through a screening procedure based on the use of brassinazole, a triazole-type brassinosteroid biosynthesis inhibitor (Asami, et al., Plant Physiol. 123: 93, 2000).

bzr1-D mutant = assay: Brassinazole sensitivity of the bzr1-D mutant; type: in vivo, Arabidopsis thaliana
Description: as §1
The dark-grown bzr1-D mutant is insensitive to brassinazole inhibition of hypocotyl elongation. The bzr1-D mutant has a curly hypocotyl similar to that of a seedling grown on medium containing brassinosteroids.

## CC(O)(c1ccccc1)C(Cc1ccc(Cl)cc1)n1cncn1 (stereo not shown) [brassinazole]
Arabidopsis plants [1]
  Effects of brassinazole application: dwarfism, altered leaf morphology, darker greening of leaves, and decreased hypocotyl length
Arabidopsis plants [2]
  Phenotype of plants treated with brassinazole: stunted
bzr1-D mutant; dark-grown
  Bassinazole sensitivity: insensitive
bzr1-D mutant; light-grown
  Bassinazole sensitivity: partially sensitive
